pIC50: −log10 of the molar value.

We go through 15 molecules from patent US20250215030A1, “STAT MODULATORS AND USES THEREOF” (Recludix Pharma, Inc., priority 2022, published 2025).

The target of experiment [1] is T1, Recombinant STAT6 protein (STAT6(W123-T658)) (Homo sapiens, UniProt P42226).
T1 construct: STAT6(W123-T658)
T1 sequence (P42226 123-658): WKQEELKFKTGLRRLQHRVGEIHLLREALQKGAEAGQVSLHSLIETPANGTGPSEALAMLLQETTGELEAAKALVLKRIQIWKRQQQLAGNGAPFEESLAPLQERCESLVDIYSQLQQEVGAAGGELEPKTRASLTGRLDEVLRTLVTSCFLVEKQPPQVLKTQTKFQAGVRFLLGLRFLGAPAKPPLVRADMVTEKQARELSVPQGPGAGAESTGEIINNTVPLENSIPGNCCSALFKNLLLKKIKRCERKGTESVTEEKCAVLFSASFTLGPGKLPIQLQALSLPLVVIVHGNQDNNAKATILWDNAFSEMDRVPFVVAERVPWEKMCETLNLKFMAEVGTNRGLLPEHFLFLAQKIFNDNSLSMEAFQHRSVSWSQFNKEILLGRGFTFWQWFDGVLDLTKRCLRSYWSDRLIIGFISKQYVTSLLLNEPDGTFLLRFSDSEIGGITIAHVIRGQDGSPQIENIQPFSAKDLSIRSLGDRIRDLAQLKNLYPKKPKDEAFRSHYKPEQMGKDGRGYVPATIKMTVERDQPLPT
In words: STAT6 Fluorescence Polarization (FP) Assay. The format is binding. The conditions noted are these: STAT6(W123-T658) 250 nM, probe 5-FAM-ApYKPFQDLI-NH2 2 nM, 45-minute incubation. The method in brief:
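Competitive displacement of a fluorescent phosphotyrosine peptide (2 nM) from recombinant STAT6 W123-T658 (250 nM), 45 min at room temperature in 10 mM HEPES pH 7.4, 50 mM NaCl, 2 mM DTT. mP fitted against log compound for IC50, grouped A (≤300 nM) to D (>30 μM).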
A general note: Fluorescence polarisation rises when a labelled molecule tumbles more slowly, as on binding a larger partner.

Experiment [2] concerns the target T2, Recombinant STAT3 protein (STAT3(G127-I722)) (Homo sapiens, UniProt P40763).
T2 construct: STAT3(G127-I722)
As to the kind of experiment: STAT3 Fluorescence Polarization (FP) Assay. The format is binding. The settings on record: STAT3(G127-I722) 25 nM, probe 5-FAM-GpYLPQTV-NH2 2 nM, 45-minute incubation. The method in brief:
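Serially diluted compounds (1% DMSO) were mixed with 2 nM fluorescent phosphotyrosine peptide and 25 nM STAT3 construct G127-I722, pH 7.4, incubated 45 min at room temperature. IC50 values from fitted polarization curves are reported as categories A (≤100 nM), B, C, D (>10 μM).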

T2 sequence (P40763 127-722, species assumed): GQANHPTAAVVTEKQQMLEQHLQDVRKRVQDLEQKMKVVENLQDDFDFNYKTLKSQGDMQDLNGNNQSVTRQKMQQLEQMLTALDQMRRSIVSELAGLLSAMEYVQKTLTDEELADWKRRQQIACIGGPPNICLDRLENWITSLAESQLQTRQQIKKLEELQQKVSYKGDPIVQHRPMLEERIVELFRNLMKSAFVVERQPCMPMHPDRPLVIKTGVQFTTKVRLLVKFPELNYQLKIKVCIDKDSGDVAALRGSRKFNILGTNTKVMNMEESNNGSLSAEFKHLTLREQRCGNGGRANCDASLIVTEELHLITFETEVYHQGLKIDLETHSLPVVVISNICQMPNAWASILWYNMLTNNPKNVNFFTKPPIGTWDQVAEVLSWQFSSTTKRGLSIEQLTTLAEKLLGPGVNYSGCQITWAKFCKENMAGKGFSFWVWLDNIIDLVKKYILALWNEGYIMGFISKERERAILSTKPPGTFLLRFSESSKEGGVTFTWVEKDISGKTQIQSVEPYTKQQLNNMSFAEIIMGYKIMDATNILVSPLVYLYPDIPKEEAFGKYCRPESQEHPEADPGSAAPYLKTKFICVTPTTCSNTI

As a reminder, the pIC50 is −log10 of the IC50, conventionally taken in molar units. On to `O=C(N[C@H]1C[C@@H]2C[C@@H]2C[C@H]2CC[C@@H](C(=O)N3CC(F)(C(=O)N4CCOCC4)C3)N2C1=O)c1cc2cc(C(F)(F)P(=O)(O)O)ccc2s1` [Compound 95, (difluoro(2-(((3S,6S,7aS,8aR,9aR)-3-(3-fluoro-3-(morpholine-4-carbonyl)azetidine-1-carbonyl)-5-oxodecahydro-1H-cyclopropa[d]pyrrolo[1,2-a]azocin-6-yl)carbamoyl)benzo[b]thiophen-5-yl)methyl)phosphonic acid], for which the pIC50 in experiment [1] is 4.52 to 5.52; in experiment [2] it was 6.00 to 7.00.

On to `O=C(N[C@H]1C[C@@H]2C[C@@H]2C[C@H]2CC[C@@H](C(=O)N3CC(C4CCOCC4)C3)N2C1=O)c1cc2cc(C(F)(F)P(=O)(O)O)ccc2s1` [Compound 96, (difluoro(2-(((3S,6S,7aS,8aR,9aR)-5-ox0-3-(3-(tetrahydro-2H-pyran-4-yl)azetidine-1-carbonyl)decahydro-1H-cyclopropa[d]pyrrolo[1,2-a]azocin-6-yl)carbamoyl)benzo[b]thiophen-5-yl)methyl)phosphonic acid], for which the pIC50 in experiment [1] is 4.52 to 5.52; in experiment [2], 6.00 to 7.00.

On to `O=C(N[C@H]1C[C@@H]2C[C@@H]2C[C@H]2CC[C@@H](C(=O)N3CC(c4ccccn4)C3)N2C1=O)c1cc2cc(C(F)(F)P(=O)(O)O)ccc2s1` [Compound 97, (difluoro(2-(((3S,6S,7aS,8aR,9aR)-5-ox0-3-(3-(pyridin-2-yl)azetidine-1-carbonyl)decahydro-1H-cyclopropa[d]pyrrolo[1,2-a]azocin-6-yl)carbamoyl)benzo[b]thiophen-5-yl)methyl)phosphonic acid], for which the pIC50 in experiment [1] is 4.52 to 5.52; in experiment [2], above 7.00.

For the molecule `O=C(N[C@H]1C[C@@H]2C[C@@H]2C[C@H]2CC[C@@H](C(=O)N3CC(c4cccnc4)C3)N2C1=O)c1cc2cc(C(F)(F)P(=O)(O)O)ccc2s1` [Compound 100, (difluoro(2-(((3S,6S,7aS,8aR,9aR)-5-ox0-3-(3-(pyridin-3-yl)azetidine-1-carbonyl)decahydro-1H-cyclopropa[d]pyrrolo[1,2-a]azocin-6-yl)carbamoyl)benzo[b]thiophen-5-yl)methyl)phosphonic acid], the pIC50 in experiment [1] is 4.52 to 5.52; in experiment [2], above 7.00.

`CC(C(N)=O)c1cc(-c2ccccc2)ccc1NC(=O)[C@@H]1CC[C@@H]2C[C@H]3C[C@H]3C[C@H](NC(=O)c3cc4cc(C(F)(F)P(=O)(O)O)ccc4s3)C(=O)N21` (stereo partly drawn) [Compound 101]: the values for the pIC50 in experiment [1] and in experiment [2] were 5.52 to 6.52 and 6.00 to 7.00, respectively.

On to `COC1CN(C(=O)C2CN(C(=O)[C@@H]3CC[C@@H]4C[C@H]5C[C@H]5C[C@H](NC(=O)c5cc6cc(C(F)(F)P(=O)(O)O)ccc6s5)C(=O)N43)C2)C1` [Compound 102, (difluoro(2-(((3S,6S,7aS,8aR,9aR)-3-(3-(3-methoxyazetidine-1-carbonyl)azetidine-1-carbonyl)-5-oxodecahydro-1H-cyclopropa[d]pyrrolo[1,2-a]azocin-6-yl)carbamoyl)benzo[b]thiophen-5-yl)methyl)phosphonic acid], for which the pIC50 in experiment [1] was 4.52 to 5.52; in experiment [2] it was above 7.00.

On to `O=C(N[C@H]1C[C@@H]2C[C@@H]2C[C@H]2CC[C@@H](C(=O)N3CC(c4nn[nH]n4)C3)N2C1=O)c1cc2cc(C(F)(F)P(=O)(O)O)ccc2s1` [Compound 103, ((2-(((3S,6S,7aS,8aR,9aR)-3-(3-(2H-tetrazol-5-yl)azetidine-1-carbonyl)-5-oxodecahydro-1H-cyclopropa[d]pyrrolo[1,2-a]azocin-6-yl)carbamoyl)benzo[b]thiophen-5-yl)difluoromethyl)phosphonic acid], for which the figures for the pIC50 in experiment [1] and in experiment [2] were 5.52 to 6.52 and 6.00 to 7.00, respectively.

On to `O=C(N[C@H]1C[C@@H]2C[C@@H]2C[C@H]2CC[C@@H](C(=O)N3CCN(C(=O)c4cn[nH]c4)CC3)N2C1=O)c1cc2cc(C(F)(F)P(=O)(O)O)ccc2s1` [Compound 104, ((2-(((3S,6S,7aS,8aR,9aR)-3-(4-(1H-pyrazole-4-carbonyl)piperazine-1-carbonyl)-5-oxodecahydro-1H-cyclopropa[d]pyrrolo[1,2-a]azocin-6-yl)carbamoyl)benzo[b]thiophen-5-yl)difluoromethyl)phosphonic acid], for which the negative-log IC50 (pIC50) was 5.52 to 6.52 in experiment [1] and above 7.00 in experiment [2].

In the case of `O=C(N[C@H]1C[C@@H]2C[C@@H]2C[C@H]2CC[C@@H](C(=O)N3CCN(C(=O)c4cc[nH]n4)CC3)N2C1=O)c1cc2cc(C(F)(F)P(=O)(O)O)ccc2s1` [Compound 105, ((2-(((3S,6S,7aS,8aR,9aR)-3-(4-(1H-pyrazole-3-carbonyl)piperazine-1-carbonyl)-5-oxodecahydro-1H-cyclopropa[d]pyrrolo[1,2-a]azocin-6-yl)carbamoyl)benzo[b]thiophen-5-yl)difluoromethyl)phosphonic acid], the pIC50 in experiment [1] is 5.52 to 6.52; in experiment [2], 6.00 to 7.00.

Consider `O=C(N[C@H]1C[C@H]2C[C@H]2C[C@H]2CC[C@@H](C(=O)N3CC(n4ccnc4)C3)N2C1=O)c1cc2cc(C(F)(F)P(=O)(O)O)ccc2s1` [Compound 107, ((2-(((3S,6S,7aR,8aS,9aR)-3-(3-(1H-imidazol-1-yl)azetidine-1-carbonyl)-5-oxodecahydro-1H-cyclopropa[d]pyrrolo[1,2-a]azocin-6-yl)carbamoyl)benzo[b]thiophen-5-yl)difluoromethyl)phosphonic acid], for which the pIC50 was 4.52 to 5.52 in experiment [1] and above 7.00 in experiment [2].

With `O=C(N[C@H]1C[C@@H]2C[C@@H]2C[C@H]2CC[C@@H](C(=O)N3CC(N4CCS(=O)(=O)CC4)C3)N2C1=O)c1cc2cc(C(F)(F)P(=O)(O)O)ccc2s1` [Compound 108, ((2-(((3S,6S,7aS,8aR,9aR)-3-(3-(1,1-dioxidothiomorpholino)azetidine-1-carbonyl)-5-oxodecahydro-1H-cyclopropa[d]pyrrolo[1,2-a]azocin-6-yl)carbamoyl)benzo[b]thiophen-5-yl)difluoromethyl)phosphonic acid], the values for the pIC50 in experiment [1] and in experiment [2] were 4.52 to 5.52 and above 7.00, respectively.

As to `O=C(N[C@H]1C[C@@H]2C[C@@H]2C[C@H]2CC[C@@H](C(=O)N3CC(C(=O)N4CC[C@@H](O)C4)C3)N2C1=O)c1cc2cc(C(F)(F)P(=O)(O)O)ccc2s1` [Compound 109, (difluoro(2-(((3S,6S,7aS,8aR,9aR)-3-(3-((R)-3-hydroxypyrrolidine-1-carbonyl)azetidine-1-carbonyl)-5-oxodecahydro-1H-cyclopropa[d]pyrrolo[1,2-a]azocin-6-yl)carbamoyl)benzo[b]thiophen-5-yl)methyl)phosphonic acid], the pIC50 in experiment [1] was 4.52 to 5.52; in experiment [2], above 7.00.

In the case of `CC1(O)CCN(C2CN(C(=O)[C@@H]3CC[C@@H]4C[C@H]5C[C@H]5C[C@H](NC(=O)c5cc6cc(C(F)(F)P(=O)(O)O)ccc6s5)C(=O)N43)C2)CC1` [Compound 110, (difluoro(2-(((3S,6S,7aS,8aR,9aR)-3-(3-(4-hydroxy-4-methylpiperidin-1-yl)azetidine-1-carbonyl)-5-oxodecahydro-1H-cyclopropa[d]pyrrolo[1,2-a]azocin-6-yl)carbamoyl)benzo[b]thiophen-5-yl)methyl)phosphonic acid], the figures for the pIC50 in experiment [1] and in experiment [2] were 4.52 to 5.52 and 6.00 to 7.00, respectively.

`O=C(N[C@H]1C[C@@H]2C[C@@H]2C[C@H]2CC[C@@H](C(=O)N3CC(c4cc[nH]n4)C3)N2C1=O)c1cc2cc(C(F)(F)P(=O)(O)O)ccc2s1` [Compound 111, ((2-(((3S,6S,7aS,8aR,9aR)-3-(3-(1H-pyrazol-3-yl)azetidine-1-carbonyl)-5-oxodecahydro-1H-cyclopropa[d]pyrrolo[1,2-a]azocin-6-yl)carbamoyl)benzo[b]thiophen-5-yl)difluoromethyl)phosphonic acid]: the pIC50 in experiment [1] is 5.52 to 6.52; in experiment [2], above 7.00.

For `O=C(N[C@H]1C[C@@H]2C[C@@H]2C[C@H]2CC[C@@H](C(=O)N[C@@H]3CCN(c4cccnc4)C3)N2C1=O)c1cc2cc(C(F)(F)P(=O)(O)O)ccc2s1` [Compound 112, (difluoro(2-(((3S,6S,7aS,8aR,9aR)-5-oxo-3-(((R)-1-(pyridin-3-yl)pyrrolidin-3-yl)carbamoyl)decahydro-1H-cyclopropa[d]pyrrolo[1,2-a]azocin-6-yl)carbamoyl)benzo[b]thiophen-5-yl)methyl)phosphonic acid], the negative-log IC50 (pIC50) is 5.52 to 6.52 in experiment [1] and above 7.00 in experiment [2].
